From patent publication US10168342B2, “Lipid probes and uses thereof” (THE SCRIPPS RESEARCH INSTITUTE, priority 2015, dated 2019)
Where two headings read alike, the source gives them in different places.

Assays:
[1] = target: T1, AEA-DA lipid probe targets in Neuro2a cells (Mus musculus, UniProt Q9Z0R9); conditions: for SILAC ratio, FADS2 (Q9Z0R9): Neuro2a cells, AEA-DA probe
T1 sequence (Q9Z0R9 1-444): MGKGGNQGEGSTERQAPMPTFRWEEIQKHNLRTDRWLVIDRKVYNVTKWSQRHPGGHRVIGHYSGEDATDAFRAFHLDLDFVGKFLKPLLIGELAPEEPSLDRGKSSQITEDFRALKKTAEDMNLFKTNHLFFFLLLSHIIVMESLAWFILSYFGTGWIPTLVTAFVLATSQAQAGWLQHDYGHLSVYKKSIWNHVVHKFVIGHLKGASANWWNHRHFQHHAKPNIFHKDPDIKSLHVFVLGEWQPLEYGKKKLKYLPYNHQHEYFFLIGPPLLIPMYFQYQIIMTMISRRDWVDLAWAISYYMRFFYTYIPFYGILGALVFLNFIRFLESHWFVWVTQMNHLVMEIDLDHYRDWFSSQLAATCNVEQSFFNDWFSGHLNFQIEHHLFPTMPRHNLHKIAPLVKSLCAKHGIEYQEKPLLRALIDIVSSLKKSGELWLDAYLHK

[2] = target: T2, AEA-DA lipid probe targets in Neuro2a cells (Mus musculus, UniProt Q8CFE6)
T2 sequence (Q8CFE6 1-504): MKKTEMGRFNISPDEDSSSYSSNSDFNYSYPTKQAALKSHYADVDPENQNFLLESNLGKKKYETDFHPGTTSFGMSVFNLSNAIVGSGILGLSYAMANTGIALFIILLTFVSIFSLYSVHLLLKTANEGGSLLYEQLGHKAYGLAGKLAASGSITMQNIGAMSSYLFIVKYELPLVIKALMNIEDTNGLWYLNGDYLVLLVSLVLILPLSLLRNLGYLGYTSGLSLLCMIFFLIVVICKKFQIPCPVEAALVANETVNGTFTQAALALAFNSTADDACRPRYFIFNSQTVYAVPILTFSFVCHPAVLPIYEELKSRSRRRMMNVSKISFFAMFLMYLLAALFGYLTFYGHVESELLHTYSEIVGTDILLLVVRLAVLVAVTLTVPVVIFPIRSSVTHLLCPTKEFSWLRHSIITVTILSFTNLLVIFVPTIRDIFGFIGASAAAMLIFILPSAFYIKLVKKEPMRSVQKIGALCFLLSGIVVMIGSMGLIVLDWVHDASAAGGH

[3] = target: T3, AEA-DA lipid probe targets in Neuro2a cells (Mus musculus, UniProt Q91X78)
T3 sequence (Q91X78 1-348): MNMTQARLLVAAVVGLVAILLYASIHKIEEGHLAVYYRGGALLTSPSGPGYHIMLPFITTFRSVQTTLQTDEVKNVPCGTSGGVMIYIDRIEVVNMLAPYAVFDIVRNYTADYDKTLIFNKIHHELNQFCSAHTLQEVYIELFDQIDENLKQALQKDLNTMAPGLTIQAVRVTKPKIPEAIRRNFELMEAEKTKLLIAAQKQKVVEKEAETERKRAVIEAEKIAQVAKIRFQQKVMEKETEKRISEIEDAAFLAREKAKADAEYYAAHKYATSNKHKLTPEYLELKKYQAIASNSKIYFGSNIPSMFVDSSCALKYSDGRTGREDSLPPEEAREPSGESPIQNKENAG

[4] = target: AEA-DA lipid probe targets in Neuro2a cells (Mus musculus, UniProt O55143)
[5] = target: T4, AEA-DA lipid probe targets in Neuro2a cells (Mus musculus, UniProt Q9WTQ8)
T4 sequence (Q9WTQ8 1-209): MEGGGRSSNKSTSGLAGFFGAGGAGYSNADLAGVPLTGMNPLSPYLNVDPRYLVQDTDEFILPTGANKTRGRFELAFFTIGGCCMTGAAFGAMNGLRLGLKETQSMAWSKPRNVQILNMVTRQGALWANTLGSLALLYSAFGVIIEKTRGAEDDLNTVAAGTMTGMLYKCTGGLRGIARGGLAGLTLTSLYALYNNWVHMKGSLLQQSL

[6] = target: T5, AEA-DA lipid probe targets in Neuro2a cells (Mus musculus, UniProt Q61009)
T5 sequence (Q61009 1-509): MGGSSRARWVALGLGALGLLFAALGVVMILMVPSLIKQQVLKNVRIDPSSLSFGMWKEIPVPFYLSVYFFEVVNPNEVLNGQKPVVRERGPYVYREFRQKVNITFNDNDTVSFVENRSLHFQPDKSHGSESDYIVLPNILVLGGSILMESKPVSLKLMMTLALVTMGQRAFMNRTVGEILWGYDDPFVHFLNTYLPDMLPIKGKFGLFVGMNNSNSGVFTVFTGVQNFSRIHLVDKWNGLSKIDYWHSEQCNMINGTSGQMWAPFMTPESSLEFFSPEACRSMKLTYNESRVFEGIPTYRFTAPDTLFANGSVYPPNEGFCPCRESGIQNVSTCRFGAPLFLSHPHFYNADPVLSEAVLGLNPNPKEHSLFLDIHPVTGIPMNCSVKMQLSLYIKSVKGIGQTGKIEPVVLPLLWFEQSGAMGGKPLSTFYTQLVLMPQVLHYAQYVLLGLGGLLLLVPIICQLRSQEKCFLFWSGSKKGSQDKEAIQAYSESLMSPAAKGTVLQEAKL

[7] = target: T6, AEA-DA lipid probe targets in Neuro2a cells (Mus musculus, UniProt Q8CHK3)
T6 sequence (Q8CHK3 1-473): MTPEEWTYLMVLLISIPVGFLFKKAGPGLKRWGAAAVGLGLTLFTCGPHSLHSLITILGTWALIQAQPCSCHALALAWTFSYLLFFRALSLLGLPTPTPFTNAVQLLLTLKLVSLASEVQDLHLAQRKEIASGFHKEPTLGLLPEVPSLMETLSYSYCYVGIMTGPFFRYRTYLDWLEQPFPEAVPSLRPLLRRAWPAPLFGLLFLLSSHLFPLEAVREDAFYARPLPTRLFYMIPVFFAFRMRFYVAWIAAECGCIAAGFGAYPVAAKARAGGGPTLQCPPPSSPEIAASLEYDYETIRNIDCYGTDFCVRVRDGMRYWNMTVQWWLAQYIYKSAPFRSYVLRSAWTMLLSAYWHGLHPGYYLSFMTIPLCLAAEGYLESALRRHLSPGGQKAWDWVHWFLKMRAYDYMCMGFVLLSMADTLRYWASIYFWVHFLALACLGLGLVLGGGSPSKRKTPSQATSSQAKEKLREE

Sequence of AEA-DA lipid probe targets in Neuro2a cells (Mus musculus, UniProt O55143) (O55143 whole entry): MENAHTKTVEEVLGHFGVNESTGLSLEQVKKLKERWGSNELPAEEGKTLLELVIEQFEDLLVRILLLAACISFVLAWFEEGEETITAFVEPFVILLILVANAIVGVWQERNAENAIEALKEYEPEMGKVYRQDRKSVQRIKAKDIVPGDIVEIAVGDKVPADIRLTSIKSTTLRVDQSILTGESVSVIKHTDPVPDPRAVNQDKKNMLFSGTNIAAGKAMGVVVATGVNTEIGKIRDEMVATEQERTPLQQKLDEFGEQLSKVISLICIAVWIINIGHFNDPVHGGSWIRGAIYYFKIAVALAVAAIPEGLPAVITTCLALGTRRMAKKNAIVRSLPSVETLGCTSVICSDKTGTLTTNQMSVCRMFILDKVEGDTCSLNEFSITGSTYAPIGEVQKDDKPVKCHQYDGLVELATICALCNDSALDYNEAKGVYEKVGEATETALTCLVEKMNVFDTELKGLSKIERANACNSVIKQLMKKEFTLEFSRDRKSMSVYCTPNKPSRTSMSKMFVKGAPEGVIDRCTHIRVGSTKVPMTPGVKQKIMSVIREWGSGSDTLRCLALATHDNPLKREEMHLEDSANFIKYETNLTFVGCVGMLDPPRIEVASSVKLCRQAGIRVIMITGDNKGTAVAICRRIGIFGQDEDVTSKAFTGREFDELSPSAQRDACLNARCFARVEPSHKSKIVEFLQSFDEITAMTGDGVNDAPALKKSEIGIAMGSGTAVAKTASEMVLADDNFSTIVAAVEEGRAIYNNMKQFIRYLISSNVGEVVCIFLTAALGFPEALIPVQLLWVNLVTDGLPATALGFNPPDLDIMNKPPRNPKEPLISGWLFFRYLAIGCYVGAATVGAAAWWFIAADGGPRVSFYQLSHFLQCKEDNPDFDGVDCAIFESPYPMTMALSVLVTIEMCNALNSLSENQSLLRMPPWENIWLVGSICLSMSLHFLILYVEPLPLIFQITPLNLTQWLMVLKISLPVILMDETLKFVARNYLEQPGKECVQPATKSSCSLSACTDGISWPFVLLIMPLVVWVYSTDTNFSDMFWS

Compound: CCCCC/C=C\C/C=C\C/C=C\C/C=C\CCCC(=O)NCCO [AEA, anandamide, reference compound]
- SILAC ratio, FADS2 (Q9Z0R9) ([1]; competitor 200 μM): 2.5
- SILAC ratio, Fads2 ([1]; competitor 200 μM): 2.5
- SILAC ratio Slc38a2 ([2]; competitor 200 μM): 1.5
- SILAC ratio Erlin1 ([3]; competitor 200 μM): 1.7
- SILAC ratio, Atp2a2 ([4]; competitor 200 μM): 2.2
- SILAC ratio, Timm23 ([5]; competitor 200 μM): 1.8
- SILAC ratio, Scarb1 ([6]; competitor 200 μM): 1.6

Compound: O=C(/C=C/c1cccnc1)NCCCCC1CCN(C(=O)c2ccccc2)CC1 [FK-866, reference compound]
- SILAC ratio, FADS2 (Q9Z0R9) ([1]; competitor 25 μM): 1.2
- SILAC ratio, Fads2 ([1]; competitor 25 μM): 1.2
- SILAC ratio Slc38a2 ([2]; competitor 25 μM): 1.0
- SILAC ratio, Mboat7 ([7]; competitor 25 μM): 1.1
- SILAC ratio Erlin1 ([3]; competitor 25 μM): 1.0
- SILAC ratio, Atp2a2 ([4]; competitor 25 μM): 1.1
- SILAC ratio, Timm23 ([5]; competitor 25 μM): 1.1
- SILAC ratio, Scarb1 ([6]; competitor 25 μM): 2.3

Compound: CN1CCN(C(=O)c2c(-c3ccccc3)c3cc([N+](=O)[O-])ccc3n2C)CC1 [KML110, (1-Methyl-5-nitro-3-phenyl-1H-indol-2-yl)(4-methylpiperazin-1-yl)methanone]
- SILAC ratio, Fads2 ([1]; competitor 25 μM): 1.4
- SILAC ratio Slc38a2 ([2]; competitor 25 μM): 1.2
- SILAC ratio, Mboat7 ([7]; competitor 25 μM): 1.7
- SILAC ratio, Atp2a2 ([4]; competitor 25 μM): 1.3
- SILAC ratio, Timm23 ([5]; competitor 25 μM): 1.3
- SILAC ratio, Scarb1 ([6]; competitor 25 μM): 2.8

Compound: CN1CCN(C(=O)c2[nH]c3ccc([N+](=O)[O-])cc3c2-c2ccccc2)CC1 [MJN228, (4-Methylpiperazin-1-yl)(5-nitro-3-phenyl-1H-indol-2-yl)methanone]
- SILAC ratio, FADS2 (Q9Z0R9) ([1]; competitor 25 μM): 1.8
- SILAC ratio, Fads2 ([1]; competitor 10 μM): 1.3
- SILAC ratio, Fads2 ([1]; competitor 25 μM): 1.8
- SILAC ratio, Fads2 ([1]; competitor 50 μM): 1.9
- SILAC ratio, Fads2 ([1]; competitor 100 μM): 2.8
- SILAC ratio Slc38a2 ([2]; competitor 10 μM): 1.2
- SILAC ratio Slc38a2 ([2]; competitor 25 μM): 1.3
- SILAC ratio Slc38a2 ([2]; competitor 100 μM): 1.2
- SILAC ratio, Mboat7 ([7]; competitor 10 μM): 1.2
- SILAC ratio, Mboat7 ([7]; competitor 25 μM): 1.6
- SILAC ratio, Mboat7 ([7]; competitor 50 μM): 1.9
- SILAC ratio, Mboat7 ([7]; competitor 100 μM): 2.3
- SILAC ratio Erlin1 ([3]; competitor 10 μM): 1.4
- SILAC ratio Erlin1 ([3]; competitor 25 μM): 1.1
- SILAC ratio Erlin1 ([3]; competitor 100 μM): 1.1
- SILAC ratio, Atp2a2 ([4]; competitor 10 μM): 1.3
- SILAC ratio, Atp2a2 ([4]; competitor 25 μM): 1.4
- SILAC ratio, Atp2a2 ([4]; competitor 50 μM): 1.4
- SILAC ratio, Atp2a2 ([4]; competitor 100 μM): 1.9
- SILAC ratio, Timm23 ([5]; competitor 10 μM): 1.0
- SILAC ratio, Timm23 ([5]; competitor 25 μM): 1.2
- SILAC ratio, Timm23 ([5]; competitor 50 μM): 1.3
- SILAC ratio, Timm23 ([5]; competitor 100 μM): 1.5
- SILAC ratio, Scarb1 ([6]; competitor 10 μM): 1.6
- SILAC ratio, Scarb1 ([6]; competitor 25 μM): 2.0
- SILAC ratio, Scarb1 ([6]; competitor 50 μM): 3.2
- SILAC ratio, Scarb1 ([6]; competitor 100 μM): 4.9

Compound: C=CCN(C)CCCCCCOc1ccc(C(=O)c2ccc(Br)cc2)c(F)c1 [Ro 48-8071, reference compound]
- SILAC ratio, FADS2 (Q9Z0R9) ([1]; competitor 25 μM): 1.2
- SILAC ratio, Fads2 ([1]; competitor 25 μM): 1.2
- SILAC ratio Slc38a2 ([2]; competitor 25 μM): 0.7
- SILAC ratio, Mboat7 ([7]; competitor 25 μM): 1.1
- SILAC ratio Erlin1 ([3]; competitor 25 μM): 1.2
- SILAC ratio, Atp2a2 ([4]; competitor 25 μM): 1.2
- SILAC ratio, Timm23 ([5]; competitor 25 μM): 1.0
- SILAC ratio, Scarb1 ([6]; competitor 25 μM): 2.9
